As a reminder, the Emax is the size of the effect at its maximum, as opposed to the concentration needed.

Read-outs that look alike come from different tables or passages of the source. A value given as a limit tells only on which side of the number the result lay.

The values that follow come from patent US20260176320A1, “MODULATORS OF G-PROTEIN COUPLED RECEPTORS” (priority 2018, published 2026).

Assay type in all cases: cell-based
The target in one assay is T1, GIP-R (Homo sapiens, UniProt P48546).
T1 sequence (P48546 22-466): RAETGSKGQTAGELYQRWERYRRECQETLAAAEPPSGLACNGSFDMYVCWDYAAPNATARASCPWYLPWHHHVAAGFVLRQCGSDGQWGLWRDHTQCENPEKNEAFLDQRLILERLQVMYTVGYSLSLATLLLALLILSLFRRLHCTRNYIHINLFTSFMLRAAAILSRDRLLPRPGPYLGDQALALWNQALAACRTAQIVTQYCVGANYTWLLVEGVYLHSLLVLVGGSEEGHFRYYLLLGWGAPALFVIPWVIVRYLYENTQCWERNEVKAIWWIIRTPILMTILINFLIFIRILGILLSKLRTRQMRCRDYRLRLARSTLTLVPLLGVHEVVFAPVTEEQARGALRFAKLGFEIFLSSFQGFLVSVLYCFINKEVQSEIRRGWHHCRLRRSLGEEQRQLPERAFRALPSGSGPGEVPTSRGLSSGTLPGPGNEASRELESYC
The experiment in a line: HitHunter cAMP assay (GIP-R). The conditions noted are these: cAMP; for Emax: read-out: (Emax) GIP-R. An outline of the steps: (§1)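 Luminescent readout of cAMP by enzyme-fragment immunocompetition gave agonist concentration-response data. Cells (10,000/well) sat in HBSS buffer containing IBMX 625 μM, HEPES 10 mM and BSA 0.2%, exposed to agonist for 30 min at room temperature.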

In assay [1] the target is T2, GLP-1R (Homo sapiens, UniProt P43220). As to the kind of experiment: PathHunter β-arrestin assay. In a few lines: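 Overnight-plated cells; 0.2% BSA medium; agonist 22-pt 2× dilution series, duplicate; 90 min, 37 °C/5% CO2; detection reagent 3 h RT, dark; luminescence.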
Assay [2] deals with T2, GLP-1R. The experiment in a line: HitHunter cAMP assay (GLP-1R). As to conditions: cAMP; for Emax: read-out: (Emax) GLP-1R. An outline of the steps:
as §1
In general terms: Changes in cAMP serve as a functional read-out for many G protein-coupled receptors.

[3] abbreviates: Table 3A, read-out: EC50 GIP-R/nM.
Where [4] appears, read: PathHunter β-arrestin assay, read-out: β-arrestin activity EC50.
Where [5] appears, read: Table 3A, read-out: EC50 GLP-1R/nM.

T2 sequence (P43220 24-463): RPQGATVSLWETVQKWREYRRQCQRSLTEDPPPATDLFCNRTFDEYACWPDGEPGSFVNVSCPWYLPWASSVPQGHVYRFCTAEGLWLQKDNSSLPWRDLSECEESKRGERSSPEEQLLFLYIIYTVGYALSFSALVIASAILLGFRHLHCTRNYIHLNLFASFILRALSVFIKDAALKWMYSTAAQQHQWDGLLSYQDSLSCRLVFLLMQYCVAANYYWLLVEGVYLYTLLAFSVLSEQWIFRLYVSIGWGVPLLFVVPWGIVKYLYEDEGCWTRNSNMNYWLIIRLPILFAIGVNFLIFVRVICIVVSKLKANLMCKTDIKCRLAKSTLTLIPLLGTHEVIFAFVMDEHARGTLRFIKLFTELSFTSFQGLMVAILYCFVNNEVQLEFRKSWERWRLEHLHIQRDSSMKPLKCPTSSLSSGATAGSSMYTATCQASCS

Consider `CCCCCCCCCCCCCCCC(=O)N[C@@H](CCC(=O)NCCCC[C@H](NC(=O)[C@H](CO)NC(=O)[C@@H]1CCCN1C(=O)[C@@H]1CCCN1C(=O)[C@@H]1CCCN1C(=O)[C@H](C)NC(=O)CNC(=O)[C@H](CO)NC(=O)[C@H](CO)NC(=O)[C@@H]1CCCN1C(=O)CNC(=O)CNC(=O)[C@H](C)NC(=O)[C@H](CC(C)C)NC(=O)[C@H](CC(C)C)NC(=O)[C@H](Cc1c[nH]c2ccccc12)NC(=O)[C@H](CC(N)=O)NC(=O)[C@@H](NC(=O)[C@H](Cc1ccccc1)NC(=O)[C@H](CCC(=O)O)NC(=O)C(C)(C)NC(=O)[C@H](C)NC(=O)[C@H](C)NC(=O)[C@H](CCC(N)=O)NC(=O)[C@H](CCCCN)NC(=O)[C@H](CC(=O)O)NC(=O)[C@H](CC(C)C)NC(=O)[C@H](Cc1ccc(O)cc1)NC(=O)[C@@H](NC(=O)[C@H](CO)NC(=O)[C@H](Cc1ccc(O)cc1)NC(=O)[C@H](CC(=O)O)NC(=O)[C@H](CO)NC(=O)[C@@H](NC(=O)[C@H](Cc1ccccc1)NC(=O)[C@@H](NC(=O)CNC(=O)[C@H](CCC(=O)O)NC(=O)CN(C)C(=O)CCN1CCCCC1=O)[C@@H](C)O)[C@@H](C)O)[C@@H](C)CC)C(C)C)C(N)=O)C(=O)O` [Compound 206], for which the maximal effect (Emax) on GIP-R (Table 3A) was found to be 18%. Besides, the figures for the EC50 at GIP-R (setting [3]), on GLP-1R [1] (setting [4]) and at GLP-1R [2] (setting [5]) were 100 to 1000 nM, above 1 µM and below 0.1 nM, respectively.
Turning to `CC[C@H](C)[C@H](NC(=O)[C@H](CO)NC(=O)[C@H](Cc1ccc(O)cc1)NC(=O)[C@H](CC(=O)O)NC(=O)[C@H](CO)NC(=O)[C@@H](NC(=O)[C@H](Cc1ccccc1)NC(=O)[C@@H](NC(=O)CNC(=O)[C@H](CCC(=O)O)NC(=O)/C=C/C(=O)NCCN1C(=O)CSC1=O)[C@@H](C)O)[C@@H](C)O)C(=O)N[C@@H](Cc1ccc(O)cc1)C(=O)N[C@@H](CC(C)C)C(=O)N[C@@H](CC(=O)O)C(=O)N[C@@H](CCCCN)C(=O)N[C@@H](CCC(N)=O)C(=O)N[C@@H](C)C(=O)N[C@@H](C)C(=O)NC(C)(C)C(=O)N[C@@H](CCC(=O)O)C(=O)N[C@@H](Cc1ccccc1)C(=O)N[C@H](C(=O)N[C@@H](CC(N)=O)C(=O)N[C@@H](Cc1c[nH]c2ccccc12)C(=O)N[C@@H](CC(C)C)C(=O)N[C@@H](CC(C)C)C(=O)N[C@@H](C)C(=O)NCC(=O)NCC(=O)N1CCC[C@H]1C(=O)N[C@@H](CO)C(=O)N[C@@H](CO)C(=O)NCC(=O)N[C@@H](C)C(=O)N1CCC[C@H]1C(=O)N1CCC[C@H]1C(=O)N1CCC[C@H]1C(=O)N[C@@H](CO)C(=O)N[C@@H](CCCCN)C(N)=O)C(C)C` [Compound 167], the EC50 at GIP-R (Table 3, read-out: EC50 GIP-R/nM) was above 1000 nM; at GIP-R (setting [3]), above 1000 nM; at GLP-1R [1] (setting [4]), above 1 µM; on GLP-1R [2] (Table 3, read-out: EC50 GLP-1R/nM) it was 0.1 to 10 nM; on GLP-1R [2] (setting [5]), 0.1 to 10 nM. Also, the Emax at 1 µM at GIP-R (read-out: (Emax) GIP-R at 1 μM, Table 3, at 1 μM) was below 1%. The maximal response (Emax) at GLP-1R [2] (Table 3) and at GLP-1R [2] (Table 3A) was 94 to 99% in each case.
With `CC[C@H](C)[C@H](NC(=O)[C@H](CO)NC(=O)[C@H](Cc1ccc(O)cc1)NC(=O)[C@H](CC(=O)O)NC(=O)[C@H](CO)NC(=O)[C@@H](NC(=O)[C@H](Cc1ccccc1)NC(=O)[C@@H](NC(=O)CNC(=O)[C@H](CCC(=O)O)NC(=O)C(C)(C)C(=O)NCCCCN1C(=O)c2ccccc2C1=O)[C@@H](C)O)[C@@H](C)O)C(=O)N[C@@H](Cc1ccc(O)cc1)C(=O)N[C@@H](CC(C)C)C(=O)N[C@@H](CC(=O)O)C(=O)N[C@@H](CCCCN)C(=O)N[C@@H](CCC(N)=O)C(=O)N[C@@H](C)C(=O)N[C@@H](C)C(=O)NC(C)(C)C(=O)N[C@@H](CCC(=O)O)C(=O)N[C@@H](Cc1ccccc1)C(=O)N[C@H](C(=O)N[C@@H](CC(N)=O)C(=O)N[C@@H](Cc1c[nH]c2ccccc12)C(=O)N[C@@H](CC(C)C)C(=O)N[C@@H](CC(C)C)C(=O)N[C@@H](C)C(=O)NCC(=O)NCC(=O)N1CCC[C@H]1C(=O)N[C@@H](CO)C(=O)N[C@@H](CO)C(=O)NCC(=O)N[C@@H](C)C(=O)N1CCC[C@H]1C(=O)N1CCC[C@H]1C(=O)N1CCC[C@H]1C(=O)N[C@@H](CO)C(=O)N[C@@H](CCCCN)C(N)=O)C(C)C` [Compound 141], the EC50 at GIP-R (EC50 GIP-R/nM, Table 3) was 10 to 100 nM; at GIP-R (EC50 GIP-R/nM, Table 3A) it was 10 to 100 nM; at GLP-1R [1] it was above 1 µM; on GLP-1R [2] (EC50 GLP-1R/nM, Table 3), 1 to 10 nM; on GLP-1R [2] (EC50 GLP-1R/nM, Table 3A), 1 to 10 nM. Besides, the Emax on GIP-R (Table 3) is 46 to 50%; on GIP-R (Table 3A), 46 to 50%; at GLP-1R [2] (Table 3), 98 to 100%; on GLP-1R [2] (Table 3A), 98 to 100%.
For `CC[C@H](C)[C@H](NC(=O)[C@H](CO)NC(=O)[C@H](Cc1ccc(O)cc1)NC(=O)[C@H](CC(=O)O)NC(=O)[C@H](CO)NC(=O)[C@@H](NC(=O)[C@H](Cc1ccccc1)NC(=O)[C@@H](NC(=O)CNC(=O)[C@H](CCC(=O)O)NC(=O)C(C)(C)C(=O)NCCn1ncc2ccccc2c1=O)[C@@H](C)O)[C@@H](C)O)C(=O)N[C@@H](Cc1ccc(O)cc1)C(=O)N[C@@H](CC(C)C)C(=O)N[C@@H](CC(=O)O)C(=O)N[C@@H](CCCCN)C(=O)N[C@@H](CCC(N)=O)C(=O)N[C@@H](C)C(=O)N[C@@H](C)C(=O)NC(C)(C)C(=O)N[C@@H](CCC(=O)O)C(=O)N[C@@H](Cc1ccccc1)C(=O)N[C@H](C(=O)N[C@@H](CC(N)=O)C(=O)N[C@@H](Cc1c[nH]c2ccccc12)C(=O)N[C@@H](CC(C)C)C(=O)N[C@@H](CC(C)C)C(=O)N[C@@H](C)C(=O)NCC(=O)NCC(=O)N1CCC[C@H]1C(=O)N[C@@H](CO)C(=O)N[C@@H](CO)C(=O)NCC(=O)N[C@@H](C)C(=O)N1CCC[C@H]1C(=O)N1CCC[C@H]1C(=O)N1CCC[C@H]1C(=O)N[C@@H](CO)C(=O)N[C@@H](CCCCN)C(N)=O)C(C)C` [Compound 116], the EC50 is 10 to 100 nM at GIP-R (EC50 GIP-R/nM, Table 3); 10 to 100 nM at GIP-R (EC50 GIP-R/nM, Table 3A); above 1 µM at GLP-1R [1]; below 0.1 nM at GLP-1R [2] (EC50 GLP-1R/nM, Table 3); below 0.1 nM at GLP-1R [2] (EC50 GLP-1R/nM, Table 3A). Besides, the Emax is 50% on GIP-R (Table 3), 50% at GIP-R (Table 3A), 98% at GLP-1R [2] (Table 3) and 98% at GLP-1R [2] (Table 3A).
Consider `CCCCCCCCCCCCCCCC(=O)N[C@@H](CCC(=O)NCCCC[C@H](NC(=O)[C@H](CO)NC(=O)[C@@H]1CCCN1C(=O)[C@@H]1CCCN1C(=O)[C@@H]1CCCN1C(=O)[C@H](C)NC(=O)CNC(=O)[C@H](CO)NC(=O)[C@H](CO)NC(=O)[C@@H]1CCCN1C(=O)CNC(=O)CNC(=O)[C@H](C)NC(=O)[C@H](CC(C)C)NC(=O)[C@H](CC(C)C)NC(=O)[C@H](Cc1c[nH]c2ccccc12)NC(=O)[C@H](CC(N)=O)NC(=O)[C@@H](NC(=O)[C@H](Cc1ccccc1)NC(=O)[C@H](CCC(=O)O)NC(=O)C(C)(C)NC(=O)[C@H](C)NC(=O)[C@H](C)NC(=O)[C@H](CCC(N)=O)NC(=O)[C@H](CCCCN)NC(=O)[C@H](CC(=O)O)NC(=O)[C@H](CC(C)C)NC(=O)[C@H](Cc1ccc(O)cc1)NC(=O)[C@@H](NC(=O)[C@H](CO)NC(=O)[C@H](Cc1ccc(O)cc1)NC(=O)[C@H](CC(=O)O)NC(=O)[C@H](CO)NC(=O)[C@@H](NC(=O)[C@H](Cc1ccccc1)NC(=O)[C@@H](NC(=O)CNC(=O)[C@H](CCC(=O)O)NC(=O)CN(C)C(=O)CN1CCCCC1=O)[C@@H](C)O)[C@@H](C)O)[C@@H](C)CC)C(C)C)C(N)=O)C(=O)O` [Compound 205], for which the maximal effect (Emax) on GIP-R (Table 3A) stood at 61%. The EC50 was 1 to 10 nM at GIP-R (setting [3]), above 1 µM on GLP-1R [1] (setting [4]) and below 0.1 nM at GLP-1R [2] (setting [5]).
`CC[C@H](C)[C@H](NC(=O)[C@H](CO)NC(=O)[C@H](Cc1ccc(O)cc1)NC(=O)[C@H](CC(=O)O)NC(=O)[C@H](CO)NC(=O)[C@@H](NC(=O)[C@H](Cc1ccccc1)NC(=O)[C@@H](NC(=O)CNC(=O)[C@H](CCC(=O)O)NC(=O)CSCC(=O)NCCN1C(=O)c2ccc(C(C)(C)C)cc2C1=O)[C@@H](C)O)[C@@H](C)O)C(=O)N[C@@H](Cc1ccc(O)cc1)C(=O)N[C@@H](CC(C)C)C(=O)N[C@@H](CC(=O)O)C(=O)N[C@@H](CCCCN)C(=O)N[C@@H](CCC(N)=O)C(=O)N[C@@H](C)C(=O)N[C@@H](C)C(=O)NC(C)(C)C(=O)N[C@@H](CCC(=O)O)C(=O)N[C@@H](Cc1ccccc1)C(=O)N[C@H](C(=O)N[C@@H](CC(N)=O)C(=O)N[C@@H](Cc1c[nH]c2ccccc12)C(=O)N[C@@H](CC(C)C)C(=O)N[C@@H](CC(C)C)C(=O)N[C@@H](C)C(=O)NCC(=O)NCC(=O)N1CCC[C@H]1C(=O)N[C@@H](CO)C(=O)N[C@@H](CO)C(=O)NCC(=O)N[C@@H](C)C(=O)N1CCC[C@H]1C(=O)N1CCC[C@H]1C(=O)N1CCC[C@H]1C(=O)N[C@@H](CO)C(=O)N[C@@H](CCCCN)C(N)=O)C(C)C` [Compound 164]: the EC50 was 10 to 100 nM on GIP-R (EC50 GIP-R/nM, Table 3); 10 to 100 nM at GIP-R (EC50 GIP-R/nM, Table 3A); above 1 µM on GLP-1R [1]; 10 to 100 nM at GLP-1R [2] (EC50 GLP-1R/nM, Table 3); 10 to 100 nM on GLP-1R [2] (EC50 GLP-1R/nM, Table 3A). Also, the Emax was 99 to 105% at GIP-R (Table 3), 99 to 105% at GIP-R (Table 3A), 68% on GLP-1R [2] (Table 3) and 68% at GLP-1R [2] (Table 3A).
